Reference: ChEMBL document CHEMBL5143757, “Combination of Cyclin-Dependent Kinase 4 Inhibitors and Androgen Receptor Inhibitors as Cancer Therapy” (2022)

Tests used:
Assay type in all cases: functional
Conditions in all cases: 96 h, read-out: GI
[1] = Growth inhibition of human LNCaP/AR cells assessed as decrease in tumor spheroid growth at 300 nM with media replenishment twice per week along with 3 to 4-day interval compound relative to control
[2] = Growth inhibition of human LNCaP/AR cells assessed as decrease in tumor spheroid growth at 300 nM with media replenishment twice per week along with 3 to 4-day interval compound in presence of enzalutamide relative to control
[3] = Growth inhibition of human LNCaP/AR cells assessed as decrease in tumor spheroid growth at 1000 nM with media replenishment twice per week along with 3 to 4-day interval compound relative to control
[4] = Growth inhibition of human LNCaP/AR cells assessed as decrease in tumor spheroid growth at 100 nM with media replenishment twice per week along with 3 to 4-day interval compound relative to control
[5] = Growth inhibition of human LNCaP/AR cells assessed as decrease in tumor spheroid growth at 1000 nM with media replenishment twice per week along with 3 to 4-day interval compound in presence of Compound A relative to control
[6] = Growth inhibition of human LNCaP/AR cells assessed as decrease in tumor spheroid growth at 1000 nM with media replenishment twice per week along with 3 to 4-day interval compound in presence of palbociclib relative to control
[7] = Growth inhibition of human LNCaP/AR cells assessed as decrease in tumor spheroid growth at 30 nM with media replenishment twice per week along with 3 to 4-day interval compound relative to control
[8] = Growth inhibition of human LNCaP/AR cells assessed as decrease in tumor spheroid growth at 30 nM with media replenishment twice per week along with 3 to 4-day interval compound in presence of enzalutamide relative to control

SMILES | inhibition of growth at 0.3 µM [1] [%] | inhibition of growth at 0.3 µM [2] [%] | inhibition of growth at 1 µM [3] [%] | inhibition of growth at 0.1 µM [4] [%] | inhibition of growth at 1 µM [5] [%] | inhibition of growth at 1 µM [6] [%] | inhibition of growth at 0.03 µM [7] [%] | inhibition of growth at 0.03 µM [8] [%]
CC(C)n1c(C(C)(C)O)nc2c(F)cc(-c3nc(N[C@@H]4CCOC[C@H]4O)ncc3Cl)cc21 [ATIRMOCICLIB] | 38 | 70 | 53 | 27 | – | – | – | –
CNC(=O)c1ccc(N2C(=S)N(c3ccc(C#N)c(C(F)(F)F)c3)C(=O)C2(C)C)cc1F [ENZALUTAMIDE] | – | – | 46 | – | 70 | 47 | – | –
CC(=O)c1c(C)c2cnc(Nc3ccc(N4CCNCC4)cn3)nc2n(C2CCCC2)c1=O [PALBOCICLIB] | – | – | – | 24 | – | – | 5 | 47
